Measured values reported in patent publication US12473326B2, “Crystalline forms of dexamethasone dimers and uses thereof” (Ripple Therapeutics Corporation, priority 2019, dated 2025).

Assays:
[1] = Drug release from heat-molded glassy pellets in PBS, 1% FBS in PBS or 100% FBS at 37° C. (HPLC); format: physicochemical; details: heat-molded pellets in the glassy state, about 1 mm x 1 mm
Experimental: Heat-molded pellets from Compound 1 (˜1 mm×1 mm) were then placed in 20 mL glass vials and 2 mL of release buffer (either 100% phosphate buffered saline (PBS), 1% fetal bovine serum (FBS) in PBS, or 100% FBS) was added. Samples were incubated at 37° C. on a shaker rotating at 115 rpm. After 1 day, 3 days, 7 days, and subsequently in alternating 3 and 4 day intervals (i.e., 1, 3, 7, 10, 14 days etc.), release buffer was sampled directly (PBS) or syringe filtered, proteins were precipitated with acetonitrile, and drug release products were extracted. The samples were analyzed by high performance liquid chromatography (HPLC) to quantify drug products.

[2] = Solubility in organic solvents; format: physicochemical
From the text: This observation has implications for coating applications as making high concentration coating solutions (e.g., for coating a surface by dip coating or spray coating a solution of Compound 1 onto the surface) will be much more practical from Form II than from Form IV.

[3] = format: physicochemical; details: for thermodynamic stability of polymorph: solid form, comparison among observed polymorphs; for interconversion into other polymorphs: under the conditions tested
From the text: Thus, Form IV in solid form has the advantage of longer-term shelf life without interconversion into another crystalline form.

[4] = Drug release from crystalline powders suspended in PBS with 50% FBS, quantified by HPLC over time; format: physicochemical; details: crystalline powder suspended in PBS with 50% FBS, FIG. 12
From the text: FIG. 12 is a graph depicting the release of Compound 1 from crystalline powders suspended in phosphate buffered saline (PBS) with 50% fetal bovine serum (FBS). The release of Compound 1 from the different crystalline forms was quantified by HPLC over time as described in Example 10.
Form I/II (mixture) and Form IV of Compound 1 were formed from acetonitrile and ethanol respectively. The crystalline powders were suspended in phosphate buffered saline (PBS) with 50% fetal bovine serum (FBS) and drug release from the different forms was quantified by HPLC over time (see FIG. 12).

[5] = Differential scanning calorimetry (behaviour on heating); format: physicochemical; details: DSC, FIG. 14
[6] = Solubility in 90% acetonitrile-10% water as a function of temperature; format: physicochemical; details: Form II vs Form IV, FIG. 15
Experimental: FIG. 15 is a graph depicting the difference in the solubilities (mg/mi) of Form II and Form IV in […] as a function of temperature.
The solubility of Form II and Form IV were measured in 90% acetonitrile-10% water as a function of temperature (see FIG. 15).

Structure (SMILES)	thermodynamic stability of polymorph [3]	interconversion into other polymorphs [3]	drug release from the crystalline form over time [4]	also measured
C[C@@H]1C[C@H]2[C@@H]3CCC4=CC(=O)C=C[C@]4(C)[C@@]3(F)[C@@H](O)C[C@]2(C)[C@@]1(O)C(=O)COC(=O)OCCOCCOCCOC(=O)OCC(=O)[C@@]1(O)[C@H](C)C[C@H]2[C@@H]3CCC4=CC(=O)C=C[C@]4(C)[C@@]3(F)[C@@H](O)C[C@@]21C [Compound 1, dexamethasone-triethylene glycol-dexamethasone]	–	–	–	mechanism of drug release from pellet [1]: Release Drug Through Surface Erosion from an Intact Pellet
C[C@@H]1C[C@H]2[C@@H]3CCC4=CC(=O)C=C[C@]4(C)[C@@]3(F)[C@@H](O)C[C@]2(C)[C@@]1(O)C(=O)COC(=O)OCCOCCOCCOC(=O)OCC(=O)[C@@]1(O)[C@H](C)C[C@H]2[C@@H]3CCC4=CC(=O)C=C[C@]4(C)[C@@]3(F)[C@@H](O)C[C@@]21C [Form IV]	most thermodynamically stable polymorph observed	not seen to convert into any other polymorphs	slower dissolution	solubility in organic solvents relative to Form II ([2]; acetonitrile, ethanol, tetrahydrofuran, 2-methyl tetrahydrofuran, isobutyl acetate, acetone, butyl acetate, ethyl acetate, isopropyl acetate, methanol): ca. 10 fold; behaviour on heating (thermal stability) [5]: decomposes on heating
C[C@@H]1C[C@H]2[C@@H]3CCC4=CC(=O)C=C[C@]4(C)[C@@]3(F)[C@@H](O)C[C@]2(C)[C@@]1(O)C(=O)COC(=O)OCCOCCOCCOC(=O)OCC(=O)[C@@]1(O)[C@H](C)C[C@H]2[C@@H]3CCC4=CC(=O)C=C[C@]4(C)[C@@]3(F)[C@@H](O)C[C@@]21C [Form VIII]	–	–	–	conversion to another form by PXRD ([3]; after 14 days at room temperature and/or cooling at 0° C. for 14 days): conversion to Form IV
C[C@@H]1C[C@H]2[C@@H]3CCC4=CC(=O)C=C[C@]4(C)[C@@]3(F)[C@@H](O)C[C@]2(C)[C@@]1(O)C(=O)COC(=O)OCCOCCOCCOC(=O)OCC(=O)[C@@]1(O)[C@H](C)C[C@H]2[C@@H]3CCC4=CC(=O)C=C[C@]4(C)[C@@]3(F)[C@@H](O)C[C@@]21C [Form II]	high thermodynamic stability	not observed to convert to Form IV	–	solubility in organic solvents, comparison in words ([2]; Form II vs Form IV): much more soluble in organic solvents than Form IV; solubility as a function of temperature [6]: higher solubility
C[C@@H]1C[C@H]2[C@@H]3CCC4=CC(=O)C=C[C@]4(C)[C@@]3(F)[C@@H](O)C[C@]2(C)[C@@]1(O)C(=O)COC(=O)OCCOCCOCCOC(=O)OCC(=O)[C@@]1(O)[C@H](C)C[C@H]2[C@@H]3CCC4=CC(=O)C=C[C@]4(C)[C@@]3(F)[C@@H](O)C[C@@]21C [Form I/II]	–	–	faster release compared to Form IV	–
